The term melting point denotes the temperature of the solid-liquid transition.

Structures are written as SMILES. Structures can show the parent of a compound that is named as a salt.

Take `CCCc1nc2c(N)nc(C)c(C)c2n1CCCCS(N)(=O)=O` [Example 31, 4-(4-Amino-6,7-dimethyl-2-propyl-1H-imidazo[4,5-c]pyridin-1-yl)butane-1-sulfonamide]: the melting point fell in the range of 167 to 169 °C.
The value for `CCOCc1nc2c(N)nc3ccccc3c2n1CCCCS(=O)(=O)NC(C)C` [Example 37, 4-[4-Amino-2-(ethoxymethyl)-1H-imidazo[4,5-c]quinolin-1-yl]-N-isopropylbutane-1-sulfonamide] was 146 to 147 °C.
To `CCOCc1nc2c(N)nc3cccnc3c2n1CCCCS(=O)(=O)N(C)C` [Example 29, N,N-Dimethyl 4-(4-Amino-2-ethoxymethyl-1H-imidazo[4,5-c][1,5]naphthyridin-1-yl)butane-1-sulfonamide] belongs 148 to 150 °C.
To `CCOCc1nc2c(N)nc3ccccc3c2n1CCCCCS(=O)(=O)NC` [Example 16, N-Methyl 5-(4-amino-2-ethoxymethyl-1H-imidazo[4,5-c]quinolin-1-yl)pentane-1-sulfonamide] belongs 175 to 179 °C; to `CCCCNS(=O)(=O)CCCCn1c(COCC)nc2c(N)nc3ccccc3c21` [Example 14, N-Butyl 4-(4-amino-2-ethoxymethyl-1H-imidazo[4,5-c]quinolin-1-yl)butane-1-sulfonamide], 148 to 149 °C.
`CCc1nc2c(N)nc3c(c2n1CCCCS(=O)(=O)NC)CCCC3` [Example 39, N-Methyl 4-(4-amino-2-ethyl-6,7,8,9-tetrahydro-1H-imidazo[4,5-c]quinolin-1-yl)butane-1-sulfonamide] yielded a melting point of 166 to 170 °C.
The value for `CCOCc1nc2c(N)nc3ccccc3c2n1CCCCS(=O)(=O)N1CCCCC1` [Example 12, 2-Ethoxymethyl-1-[4-(piperidine-1-sulfonyl)butyl]-1H-imidazo[4,5-c]quinoline-4-amine] was 185 to 188 °C; that for `CCOCc1nc2c(N)nc3ccccc3c2n1CCOCCCS(=O)(=O)N(C)C` [Example 15, N,N-Dimethyl 3-[2-(4-amino-2-ethoxymethyl-1H-imidazo[4,5-c]quinolin-1-yl)ethoxy]propane-1-sulfonamide] was 61 to 64 °C.
The value for `CCOCc1nc2c(N)nc3ccccc3c2n1CC(C)(C)CS(=O)(=O)N(C)C` (as salt: hydrochloride) [Example 25, N,N-Dimethyl 3-(4-amino-2-ethoxymethyl-1H-imidazo[4,5-c]quinolin-1-yl)-2,2-dimethylpropane-1-sulfonamide] was 193 to 195 °C.
As to `CCOCc1nc2c(N)nc3ccccc3c2n1CC(C)(C)CS(=O)(=O)NC` [Example 36, 3-[4-Amino-2-(ethoxymethyl)-1H-imidazo[4,5-c]quinolin-1-yl]-N,2,2-trimethylpropane-1-sulfonamide], the melting point lay in the range of 161 to 163 °C.
To `CCc1nc2c(N)nc3ccccc3c2n1CCCS(=O)(=O)NC` [Example 1, N-Methyl 3-(4-amino-2-ethyl-1H-imidazo[4,5-c]quinolin-1-yl)propane-1-sulfonamide] belongs 225 to 228 °C; to `CCc1nc2c(N)nc3ccccc3c2n1CCCS(=O)(=O)N(C)C` [Example 2, N,N-Dimethyl 3-(4-amino-2-ethyl-1H-imidazo[4,5-c]quinolin-1-yl)propane-1-sulfonamide], 209 to 211 °C; to `CCOCc1nc2c(N)nc3cccnc3c2n1CCCCS(=O)(=O)NC` [Example 32, N-Methyl 4-(4-Amino-2-ethoxymethyl-1H-imidazo[4,5-c][1,5]naphthyridin-1-yl)butane-1-sulfonamide], 148 to 150 °C.
With `CCOCc1nc2c(N)nc3ccccc3c2n1CCCCS(=O)(=O)NC` [Example 10, N-Methyl 4-(4-amino-2-ethoxymethyl-1H-imidazo[4,5-c]quinolin-1-yl)butane-1-sulfonamide], the melting point was 170 to 172 °C.
To `CCOCc1nc2c(N)nc3c(c2n1CCCCS(=O)(=O)NC)CCCC3` [Example 18, N-Methyl 4-(4-amino-2-ethoxymethyl-6,7,8,9-tetrahydro-1H-imidazo[4,5-c]quinolin-1-yl)butane-1-sulfonamide] belongs 188 to 192 °C; to `CCOCc1nc2c(N)nc(C)c(C)c2n1CCCCS(=O)(=O)NC` [Example 34, N-Methyl 4-(4-Amino-6,7-dimethyl-2-ethoxymethyl-1H-imidazo[4,5-c]pyridin-1-yl) butane-1-sulfonamide], 194.5 to 196 °C.
The value for `CCOCc1nc2c(N)nc3c(c2n1CCCCCS(N)(=O)=O)CCCC3` [Example 38, 5-[4-amino-2-(ethoxymethyl)-6,7,8,9-tetrahydro-1H-imidazo[4,5-c]quinolin-1-yl]pentane-1-sulfonamide] was 203 to 205 °C; that for `CCCc1nc2c(N)nc3cccnc3c2n1CCCCS(=O)(=O)N(C)C` [Example 30, N,N-Dimethyl 4-(4-Amino-2-propyl-1H-imidazo[4,5-c][1,5]naphthyridin-1-yl)butane-1-sulfonamide] was 162 to 163 °C; that for `CCOCc1nc2c(N)nc3ccccc3c2n1CCCCS(=O)(=O)NC1CCCCC1` [Example 13, N-Cyclohexyl 4-(4-amino-2-ethoxymethyl-1H-imidazo[4,5-c]quinolin-1-yl)butane-1-sulfonamide] was 197 to 198 °C.
To `CCOCc1nc2c(N)nc3c(c2n1CCCCS(N)(=O)=O)CCCC3` [Example 24, 4-(4-Amino-2-ethoxymethyl-6,7,8,9-tetrahydro-1H-imidazo[4,5-c]quinolin-1-yl)butane-1-sulfonamide] belongs 224 to 227 °C.
Compound `CCc1nc2c(N)nc3ccccc3c2n1CCCCS(=O)(=O)NC` [Example 4, N-Methyl 4-(4-amino-2-ethyl-1H-imidazo[4,5-c]quinolin-1-yl)butane-1-sulfonamide] showed a melting point of 190 to 191 °C.
Regarding `CCOCc1nc2c(N)nc3ccccc3c2n1CCCCS(=O)(=O)N(C)C` [Example 11, N,N-Dimethyl 4-(4-amino-2-ethoxymethyl-1H-imidazo[4,5-c]quinolin-1-yl)butane-1-sulfonamide], the melting point fell in the range of 173 to 174 °C.
Take `CCCc1nc2c(N)nc(C)c(C)c2n1CCCCS(=O)(=O)NC` [Example 27, N-Methyl 4-(4-Amino-6,7-dimethyl-2-propyl-1H-imidazo[4,5-c]pyridin-1-yl)butane-1-sulfonamide]: the melting point was 164 to 166 °C.
For the compound `CCc1nc2c(N)nc3ccccc3c2n1CCCCS(=O)(=O)N(C)C` [Example 3, N,N-Dimethyl 4-(4-amino-2-ethyl-1H-imidazo[4,5-c]quinolin-1-yl)butane-1-sulfonamide], the melting point is 193 to 195 °C.
On to `CCCc1nc2c(N)nc(C)c(C)c2n1CCCCS(=O)(=O)N(C)C` [Example 26, N,N-Dimethyl 4-(4-Amino-6,7-dimethyl-2-propyl-1H-imidazo[4,5-c]pyridin-1-yl)butane-1-sulfonamide], for which the melting point lay in the range of 127 to 128 °C.
The value for `CCOCc1nc2c(N)nc3ccccc3c2n1CCCCS(=O)(=O)Nc1ccc(OC)cc1` [Example 8, N-(4-Methoxyphenyl) 4-(4-amino-2-ethoxymethyl-1H-imidazo[4,5-c]quinolin-1-yl)butane-1-sulfonamide] was 229 to 230 °C; that for `CCOCc1nc2c(N)nc3ccccc3c2n1CCCCCS(=O)(=O)N(C)C` [Example 17, N,N-Dimethyl 5-(4-amino-2-ethoxymethyl-1H-imidazo[4,5-c]quinolin-1-yl)pentane-1-sulfonamide] was 138 to 142 °C; that for `Cc1nc2c(N)nc3c(c2n1CC(C)(C)CS(N)(=O)=O)CCCC3` [Example 43, 3-(4-Amino-2-methyl-6,7,8,9-tetrahydro-1H-imidazo[4,5-c]quinolin-1-yl)-2,2-dimethylpropane-1-sulfonamide] was 242 to 243 °C (dec.).
To `CCOCc1nc2c(N)nc3ccccc3c2n1CCCCS(=O)(=O)Nc1ccccn1` [Example 40, 4-[4-Amino-2-(ethoxymethyl)-1H-imidazo[4,5-c]quinolin-1-yl]-N-(pyridin-2-yl)butane-1-sulfonamide] belongs 197 to 200 °C.
For the compound `CCOCc1nc2c(N)nc(C)c(C)c2n1CCCCS(N)(=O)=O` [Example 35, 4-(4-Amino-2-ethoxymethyl-6,7-dimethyl-1H-imidazo[4,5-c]pyridin-1-yl)butane-1-sulfonamide], the melting point fell in the range of 200 to 201.5 °C.
Compound `CCc1nc2c(N)nc3ccccc3c2n1CCCCS(N)(=O)=O` (as salt: trifluoroacetate) [Example 6, 4-(4-Amino-2-ethyl-1H-imidazo[4,5-c]quinolin-1-yl)butane-1-sulfonamide] showed a melting point of 225 to 227 °C.
To `CCOCc1nc2c(N)nc3ccccc3c2n1CCCCCS(N)(=O)=O` [Example 23, 5-(4-Amino-2-ethoxymethyl-1H-imidazo[4,5-c]quinolin-1-yl)pentane-1-sulfonamide] belongs 176 to 178 °C; to `CCOCc1nc2c(N)nc3ccccc3c2n1CC(C)(C)CS(=O)(=O)NCc1ccc(OC)cc1` [Example 41, 3-[4-Amino-2-(ethoxymethyl)-1H-imidazo[4,5-c]quinolin-1-yl]-N-(4-methoxybenzyl)-2,2-dimethylpropane-1-sulfonamide], 203 to 205 °C.
In turn, `CCOCc1nc2c(N)nc(C)c(C)c2n1CCCCS(=O)(=O)N(C)C` [Example 28, N,N-Dimethyl 4-(4-Amino-6,7-dimethyl-2-ethoxymethyl-1H-imidazo[4,5-c]pyridin-1-yl)butane-1-sulfonamide] had a melting point of 158 to 160 °C.
To `CCOCc1nc2c(N)nc3ccccc3c2n1CCCCS(=O)(=O)NCc1ccc(OC)cc1` [Example 20, N-(4-Methoxybenzyl) 4-(4-amino-2-ethoxymethyl-1H-imidazo[4,5-c]quinolin-1-yl)butane-1-sulfonamide] belongs 101 °C; to `CCCc1nc2c(N)nc3cccnc3c2n1CCCCS(=O)(=O)NC` [Example 33, N-Methyl 4-(4-Amino-2-propyl-1H-imidazo[4,5-c][1,5]naphthyridin-1-yl)butane-1-sulfonamide], 174 to 175 °C.
